Test results taken from patent US20070197485A1, “Therapy and Use of Compounds in Therapy” (MAX-DELBRUECK-CENTRUM FUR MOLEKULARE MEDIZIN, priority 1999, published 2007).

Columns and labels:
[1] = system: monocyte generated cytokine production in response to LPS; conditions: in vitro, in the concentrations used; cited from earlier work
[2] = system: whole blood TNF production; assay: Whole blood TNF production after therapeutic application of UDCA; type: in vivo, human; conditions: patient 4; after 2 days of UDCA treatment, 3 times 250 mg daily
Protocol: (§1) We have tested the ability of the therapeutic application of ursodeoxycholic acid (UDCA, FALK Pharma GmbH) to lower plasma levels of TNF and IL6 and to lower spontaneous and LPS-stimulated whole blood cytokine production in patients with cachexia.
(§2) We studied in 2 patients with cachexia due to liver cirrhosis plasma cytokine levels after treatment with 3 times 250 mg daily UDCA (FALK Pharma GmbH). The patients had weight loss >7.5% compared to their previous normal weight. The patients were studied at baseline prior to the treatment on 2 subsequent days (day ”−1” and day “0”), and then they were restudied on day 1 (“1”), day 2 (“2”), and day 5 (“5”), see FIGS. 9 and 12.
(§3) Methods: Heparinized whole blood was diluted 1:10 with medium ±LPS (50 pg/ml), ±BPI (1 ug/ml), and ±UDCA (1 ug/ml-1 mg/ml) according to the manufacturer's recommendation (Milenia whole blood assay; DPC Biermann, Bad Nauheim, Germany) and incubated for 4 hours at 37° C. In the supernatant and in plasma, we assessed concentrations of TNF and IL-6 using the semiautomated Immulite system (DPC-Biermann, Bad Nauheim, Germany).

[3] = system: whole blood IL6 production; assay: Whole blood IL6 production after therapeutic application of UDCA; type: in vivo, human; conditions: patient 4; after 2 days of UDCA treatment, 3 times 250 mg daily
Protocol: as §1, §2, §3

[4] = system: TNF production in whole blood of patients with cachexia; assay: Milenia whole blood assay, TNF production (in vitro addition of UDCA / BPi); type: cell-based, human
Protocol: (§4) We have tested the ability of ursodeoxycholic acid (UDCA, FALK Pharma GmbH) and BPi to inhibit LPS-mediated TNF production in whole blood of patients with cachexia. We studied 4 patients with cachexia due to liver cirrhosis. The patients had all weight loss >7.5% compared to their previous normal weight. […] All patients were studied twice on 2 subsequent days (day “−1” and day “0”), see FIG. 9 to 12.
as §3, with “μg/ml), ±BPi” for “pg/ml), ±BPI”, “μg/ml),” for “ug/ml),”, “μg/ml-1” for “ug/ml-1”, “supernatant,” for “supernatant and in plasma,”

[5] = system: IL6 production in whole blood of patients with cachexia; assay: Milenia whole blood assay, IL6 production (in vitro addition of UDCA / BPi); type: cell-based, human
Text: as §4
[…] In the supernatant, we assessed concentrations of TNF and IL-6 using the semiautomated Immulite system (DPC-Biermann, Bad Nauheim, Germany).

[6] = system: LPS-induced TNF-α release; assay: LPS-induced TNF-α release with lipoproteins / LBP (FIG. 4 to 7); type: cell-based; conditions: addition of LBP to a lipoprotein containing serum (FIG. 7)
[7] = 100 ug/ml UDCA, whole blood of patients with cachexia due to liver cirrhosis, 4 hours at 37° C
[8] = 1 mg/ml UDCA, whole blood of patients with cachexia due to liver cirrhosis diluted 1:10, 4 hours at 37° C, on average
[9] = BPi 1 ug/ml, in 6 of 8 experiments, or towards non-detectability, 2 cases stable, p<0.05
[10] = BPi 1 ug/ml, whole blood of patients with cachexia due to liver cirrhosis, no LPS

Question: For C[C@H](CCC(=O)O)[C@H]1CC[C@H]2[C@@H]3[C@H](O)C[C@@H]4C[C@H](O)CC[C@]4(C)[C@H]3CC[C@]12C [chenodeoxycholic acid], which “effect on monocyte generated cytokine production in response to LPS” value [1] is on record?
Answer: less effective

Question: What does the source list for C[C@H](CCC(=O)O)[C@H]1CC[C@H]2[C@@H]3[C@@H](O)C[C@@H]4C[C@H](O)CC[C@]4(C)[C@H]3CC[C@]12C [UDCA, ursodeoxycholic acid]?
Answer: LPS-stimulated TNF production lowered [2]: 43.5%; LPS-stimulated IL6 production lowered [3]: 39.6%; reduction of LPS-stimulated TNF production [4, 7]: 42%; reduction of LPS-stimulated TNF production [4, 8]: > 99%; reduction of LPS-stimulated IL6 production [5, 7]: 13%; reduction of LPS-stimulated IL6 production [5, 8]: 97%

B1: LBP: LPS binding protein (protein, UniProt P18428 26-481, looked up)
Lipopolysaccharide-binding …: ANPGLVARITDKGLQYAAQEGLLALQSELLRITLPDFTGDLRIPHVGRGRYEFHSLNIHSCELLHSALRPVPGQGLSLSISDSSIRVQGRWKVRKSFFKLQGSFDVSVKGISISVNLLLGSESSGRPTVTASSCSSDIADVEVDMSGDLGWLLNLFHNQIESKFQKVLESRICEMIQKSVSSDLQPYLQTLPVTTEIDSFADIDYSLVEAPRATAQMLEVMFKGEIFHRNHRSPVTLLAAVMSLPEEHNKMVYFAISDYVFNTASLVYHEEGYLNFSITDDMIPPDSNIRLTTKSFRPFVPRLARLYPNMNLELQGSVPSAPLLNFSPGNLSVDPYMEIDAFVLLPSSSKEPVFRLSVATNVSATLTFNTSKITGFLKPGKVKVELKESKVGLFNAELLEALLNYYILNTFYPKFNDKLAEGFPLPLLKRVQLYDLGLQIHKDFLFLGANVQYMRV
Question: With B1 as the molecule, how does the “LPS-mediated TNF-α production” value [6] read?
Answer: reduced

B2: BPi: BPi, agent tested to inhibit LPS-mediated TNF production in whole blood; not spelled out in the text (protein, UniProt P17213 32-487, looked up)
Bactericidal …: VNPGVVVRISQKGLDYASQQGTAALQKELKRIKIPDYSDSFKIKHLGKGHYSFYSMDIREFQLPSSQISMVPNVGLKFSISNANIKISGKWKAQKRFLKMSGNFDLSIEGMSISADLKLGSNPTSGKPTITCSSCSSHINSVHVHISKSKVGWLIQLFHKKIESALRNKMNSQVCEKVTNSVSSELQPYFQTLPVMTKIDSVAGINYGLVAPPATTAETLDVQMKGEFYSENHHNPPPFAPPVMEFPAAHDRMVYLGLSDYFFNTAGLVYQEAGVLKMTLRDDMIPKESKFRLTTKFFGTFLPEVAKKFPNMKIQIHVSASTPPHLSVQPTGLTFYPAVDVQAFAVLPNSSLASLFLIGMHTTGSMEVSAESNRLVGELKLDRLLLELKHSNIGPFPVELLQDIMNYIVPILVLPRVNEKLQKGFPLPTPARVQLYNVVLQPHQNFLLFGADVVYK
Question: For B2, which “lowering of spontaneous TNF levels” value [4, 9] is on record?
Answer: at least 5 pg/mi

Question: And the “spontaneous production of TNF” value [4, 10]?
Answer: reduced significantly

Question: What about the “lowering of spontaneous IL6 levels” value [5, 9] of the same molecule?
Answer: at least 5 pg/mi

Question: And the “spontaneous production of IL6” value [5, 10]?
Answer: reduced significantly
